In ChEMBL document CHEMBL1201862, “PubChem BioAssay data set” (2004):
Activity calls are given as the source filed them.

Columns and labels:
BJ [1] = test: cytotoxicity toward Ras-transformed BJeLR fibroblasts, dose response, cell-based, alamar blue fluorescence, cherrypicked samples (AID 2631); type: functional; details: Homo sapiens;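 further: confirmatory dose-response assay in RAS-dependent BJ fibroblasts engineered with TERT, LT and ST, with cytotoxicity read by fluorescence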
BJ [2] = test: cytotoxicity toward BJ-TERT-LT-ST fibroblasts, dose response, cell-based, RAS-independent, luminescence (AID 1935); type: functional; details: Homo sapiens;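 further: BJ fibroblasts immortalized with TERT plus LT and ST oncogenes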
HEK293 [3] = test: optical interference in Abeta FP readout, dose response, artefact control for IDE activator project, biochemical, fluorescence polarization (AID 588442); type: functional, cell-based; details: Homo sapiens
BJ [4] = test: cells; type: functional, cell-based; details: Homo sapiens
Insulin-degrading enzyme [5] = molecular target: T1, Insulin-degrading enzyme (Homo sapiens, UniProt P14735); test: activators of recombinant IDE enzyme, dose response, counter-screen for IDE activator project, biochemical, fluorescence polarization (AID 588681)
[6] = cytotoxicity toward DRD oncogenic fibroblasts, dose response, cell-based, non-viral oncogenic, luminescence (AID 1934); type: functional; details: Homo sapiens
Insulin-degrading enzyme [7] = molecular target: T1, Insulin-degrading enzyme; test: activators of endogenous IDE in HEK cells, dose response, cell-based, fluorescence polarization (AID 588439); type: functional
[8] = molecular target: G-protein coupled receptor 55 (Homo sapiens, UniProt Q9Y2T6); test: GPR55 antagonists blocking LPI-driven arrestin recruitment, primary screen, imaging, U2OS, beta-arrestin-GFP, LPI agonist (AID 2013); type: functional;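 further: antagonist potency measured as reduced agonist-driven arrestin aggregation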
[9] = Luminescence Cell-Based Dose Response HTS to Identify Inhibitors of 5'UTR Stem-Loop Driven Prion Protein mRNA Translation in H4 Neuroglioblastoma Cells. [Related pubchem assays: 1827 (Project Summary), 1813 (Primary HTS)]; type: functional
[10] = molecular target: T2, Ubiquitin-conjugating enzyme E2 N (Homo sapiens, UniProt P61088); type: functional;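 further: Dose-response confirmation in a TR-FRET assay detecting UBC13-driven polyubiquitin chain formation, inhibition measured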
T2 sequence (P61088 whole entry): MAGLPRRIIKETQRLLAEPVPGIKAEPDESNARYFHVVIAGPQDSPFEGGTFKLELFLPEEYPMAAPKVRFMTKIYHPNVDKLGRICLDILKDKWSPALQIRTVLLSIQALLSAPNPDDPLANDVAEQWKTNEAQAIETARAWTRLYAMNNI

BJ [11] = test: cytotoxicity toward BJ-TERT fibroblasts, dose response, cell-based, RAS-independent, luminescence (AID 1933); type: functional; details: Homo sapiens
[12] = inhibitors of SNCA 5'UTR-driven reporter translation, confirmation, H4 neuroglioma cells, luminescence (AID 1988); type: functional, cell-based
[13] = inhibitors of firefly luciferase expression or activity, dose response, H4 neuroglioma cells, luminescence (AID 1990); type: functional, cell-based
INS1 = test: beta cell apoptosis inhibitors, cytokine rescue, dose response, luminescence, retest (AID 449756); type: functional, cell-based; details: Rattus norvegicus;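 further: cell death triggered by IL-1 beta plus TNF-alpha plus IFN-gamma mixture; protective hits raise ATP signal compared with cytokine alone wells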
HEK293 [14] = test: HEK cell cytotoxicity by LDH release, dose response, cytotoxicity control for IDE activator project, fluorescence, HEK cells (AID 588440); type: functional, cell-based; details: Homo sapiens;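 further: cytotoxicity by LDH release measuring loss of membrane integrity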
[15] = Shn3 3'UTR reporter inhibitors, dose response, cell-based, Clone20 osteoblasts, firefly luciferase, cherry-picked (AID 624132); type: functional;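 further: firefly luciferase luminescence from reporter carrying the Shn3 3'UTR in osteoblasts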
Fatty acid synthase [16] = molecular target: T3, Fatty acid synthase (Homo sapiens, UniProt P49327); test: FAS thioesterase domain inhibitors, dose response, biochemical, kinetic fluorescence intensity (AID 624326); type: functional;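 further: rate of fluorescence rise from hydrolysis of a fluorogenic O-methyl fluorescein ester substrate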
[17] = molecular target: T4, Rac GTPase-activating protein 1 (Homo sapiens, UniProt Q9H0H5); test: MgcRacGAP GTPase-activating activity inhibitors, confirmation, biochemical, ADP Hunter fluorescence, primary and confirmatory (AID 624330); type: functional
T4 sequence (Q9H0H5 whole entry): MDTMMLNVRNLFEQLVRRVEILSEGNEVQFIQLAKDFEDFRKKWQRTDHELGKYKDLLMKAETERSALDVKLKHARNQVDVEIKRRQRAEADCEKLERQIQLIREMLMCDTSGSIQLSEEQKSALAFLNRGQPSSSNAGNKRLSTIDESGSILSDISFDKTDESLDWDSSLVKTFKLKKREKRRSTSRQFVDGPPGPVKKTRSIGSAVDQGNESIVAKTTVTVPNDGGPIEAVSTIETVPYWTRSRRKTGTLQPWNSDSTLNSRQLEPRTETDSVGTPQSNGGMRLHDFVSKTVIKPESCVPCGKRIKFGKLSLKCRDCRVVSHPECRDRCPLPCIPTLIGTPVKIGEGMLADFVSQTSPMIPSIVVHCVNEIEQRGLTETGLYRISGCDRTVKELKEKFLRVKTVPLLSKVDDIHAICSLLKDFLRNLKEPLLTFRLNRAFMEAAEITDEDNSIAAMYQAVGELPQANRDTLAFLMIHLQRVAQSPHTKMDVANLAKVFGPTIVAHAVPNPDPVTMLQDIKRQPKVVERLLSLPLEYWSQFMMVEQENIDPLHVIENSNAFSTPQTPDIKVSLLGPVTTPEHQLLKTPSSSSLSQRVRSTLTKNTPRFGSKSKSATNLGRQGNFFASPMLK

[18] = molecular target: T5, Type-1 angiotensin II receptor (Homo sapiens, UniProt P30556); test: AT1 receptor antagonists, dose response, selectivity assay for APJ receptor antagonist project, cell-based, uHTS hits (AID 463214); type: functional;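 further: antagonist potency against angiotensin II stimulated AT1 response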
T5 sequence (P30556 whole entry): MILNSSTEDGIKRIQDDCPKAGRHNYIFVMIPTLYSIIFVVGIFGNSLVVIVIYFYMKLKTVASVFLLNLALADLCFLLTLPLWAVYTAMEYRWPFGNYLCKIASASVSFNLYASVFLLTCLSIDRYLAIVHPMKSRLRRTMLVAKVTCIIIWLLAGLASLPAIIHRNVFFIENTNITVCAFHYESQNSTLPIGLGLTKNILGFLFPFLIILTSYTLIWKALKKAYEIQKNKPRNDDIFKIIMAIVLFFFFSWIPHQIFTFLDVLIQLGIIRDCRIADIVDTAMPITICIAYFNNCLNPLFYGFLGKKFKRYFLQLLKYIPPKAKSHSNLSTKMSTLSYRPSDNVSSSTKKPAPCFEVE

[19] = molecular target: Heat shock protein HSP 90-alpha (Homo sapiens, UniProt P07900); type: functional, organism-based
[20] = control 3'UTR Renilla luciferase suppression, dose response, counter-screen for Shn3 inhibitor project, cell-based, Clone20-Shn3RL, cherry-picked (AID 624133); type: functional
CHO = test: cytotoxicity in TLR9-MyD88 CHO cells, dose response, cytotoxicity control for TLR9-MyD88 binding inhibitor project, cell-based, luminescence (AID 588339); type: functional, hamster; details: Cricetulus griseus;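 further: CHO cells stably coexpressing TLR9 and MyD88 fusions from primary screen; compound exposure lasted 48 hours before viability readout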
Beta Lactamase = Beta Lactamase (Pseudomonas aeruginosa, UniProt Q932Y6); test: beta-lactamase reporter inhibitor potency, dose response, artefact control for TLR9-MyD88 binding inhibitor project, BLA reporter cells, FRET fluorescence (AID 588341); type: cell-based;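 further: cell based assay in CHO-K1 cells stably expressing beta-lactamase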
[21] = HeLa cell cytotoxicity, dose response, cytotoxicity control for MgcRacGAP inhibitor project (AID 624300); type: functional
Melanocortin receptor 4 = Melanocortin receptor 4 (Homo sapiens, UniProt P32245); test: MC4R antagonist potency on cAMP, dose response, cell-based, TR-FRET, biased antagonists (AID 602298); type: functional;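 further: antagonist potency against agonist-stimulated cAMP production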
Fatty acid synthase [22] = molecular target: T3, Fatty acid synthase; test: FAS thioesterase domain inhibitors, dose response, biochemical, endpoint fluorescence intensity, uHTS hits (AID 624327); type: functional;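 further: fluorescence from hydrolysis of an O-methyl fluorescein acyl ester substrate by the enzyme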
Beta-galactosidase = Beta-galactosidase (Escherichia coli, UniProt Q8VNN2); test: PubChem AID 485352; type: functional
[23] = molecular target: E3 ubiquitin-protein ligase Mdm2 (Homo sapiens, UniProt Q00987); test: enhancers of MDM2-luciferase reporter signal, concentration-effect titration, project on inhibitors of MDM2 ubiquitin ligase, cellular assay, luminescent readout, 384-well plate format (AID 1394); type: functional;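 further: MDM2 E3 inhibitors raise luminescence so EC50 is for signal enhancement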
[24] = nonselective inhibitors of cellular cAMP signaling, dose response, counter-screen for MC4R biased antagonist project, cell-based, TR-FRET cAMP detection (AID 602305); type: functional;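 further: U2OS cells stimulated with forskolin near its EC80 as the cAMP inducer; potency is for inhibition of forskolin-stimulated cAMP signaling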
[25] = cytotoxicity in HEK-293T cells, dose response, cytotoxicity control for TCR NF-kB inhibitor project, luminescence, T-cell screen hits (AID 489026); type: functional, cell-based;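 further: cells exposed to compound about 14 hours before the viability readout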
[26] = molecular target: Protein disulfide-isomerase (Homo sapiens, UniProt P07237); test: PDI inhibitors, insulin aggregation turbidity, dose response, biochemical, absorbance, cherry-picked samples (AID 602350); type: functional
[27] = molecular target: T6, High affinity choline transporter 1 (Homo sapiens, UniProt Q9GZV3); test: CHT activators, dose response, cell-based, 10-point CRC, membrane potential dye (AID 602376); type: functional
T6 sequence (Q9GZV3 whole entry): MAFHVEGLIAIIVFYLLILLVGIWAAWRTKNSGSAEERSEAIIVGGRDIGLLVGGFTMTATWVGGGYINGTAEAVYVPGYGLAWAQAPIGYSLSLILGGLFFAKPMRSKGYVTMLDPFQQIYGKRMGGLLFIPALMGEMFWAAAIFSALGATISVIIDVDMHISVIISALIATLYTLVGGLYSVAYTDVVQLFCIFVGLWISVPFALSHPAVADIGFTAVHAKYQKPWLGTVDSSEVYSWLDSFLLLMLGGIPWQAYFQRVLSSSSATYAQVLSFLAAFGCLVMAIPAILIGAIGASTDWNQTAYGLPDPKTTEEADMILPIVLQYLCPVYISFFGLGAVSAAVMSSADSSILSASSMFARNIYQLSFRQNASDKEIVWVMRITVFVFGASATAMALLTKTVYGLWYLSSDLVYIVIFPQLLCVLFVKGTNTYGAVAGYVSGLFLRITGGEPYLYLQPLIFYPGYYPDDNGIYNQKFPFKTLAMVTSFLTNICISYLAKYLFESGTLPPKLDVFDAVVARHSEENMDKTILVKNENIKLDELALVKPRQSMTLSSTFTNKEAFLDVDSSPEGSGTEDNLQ

T1 sequence (P14735 whole entry): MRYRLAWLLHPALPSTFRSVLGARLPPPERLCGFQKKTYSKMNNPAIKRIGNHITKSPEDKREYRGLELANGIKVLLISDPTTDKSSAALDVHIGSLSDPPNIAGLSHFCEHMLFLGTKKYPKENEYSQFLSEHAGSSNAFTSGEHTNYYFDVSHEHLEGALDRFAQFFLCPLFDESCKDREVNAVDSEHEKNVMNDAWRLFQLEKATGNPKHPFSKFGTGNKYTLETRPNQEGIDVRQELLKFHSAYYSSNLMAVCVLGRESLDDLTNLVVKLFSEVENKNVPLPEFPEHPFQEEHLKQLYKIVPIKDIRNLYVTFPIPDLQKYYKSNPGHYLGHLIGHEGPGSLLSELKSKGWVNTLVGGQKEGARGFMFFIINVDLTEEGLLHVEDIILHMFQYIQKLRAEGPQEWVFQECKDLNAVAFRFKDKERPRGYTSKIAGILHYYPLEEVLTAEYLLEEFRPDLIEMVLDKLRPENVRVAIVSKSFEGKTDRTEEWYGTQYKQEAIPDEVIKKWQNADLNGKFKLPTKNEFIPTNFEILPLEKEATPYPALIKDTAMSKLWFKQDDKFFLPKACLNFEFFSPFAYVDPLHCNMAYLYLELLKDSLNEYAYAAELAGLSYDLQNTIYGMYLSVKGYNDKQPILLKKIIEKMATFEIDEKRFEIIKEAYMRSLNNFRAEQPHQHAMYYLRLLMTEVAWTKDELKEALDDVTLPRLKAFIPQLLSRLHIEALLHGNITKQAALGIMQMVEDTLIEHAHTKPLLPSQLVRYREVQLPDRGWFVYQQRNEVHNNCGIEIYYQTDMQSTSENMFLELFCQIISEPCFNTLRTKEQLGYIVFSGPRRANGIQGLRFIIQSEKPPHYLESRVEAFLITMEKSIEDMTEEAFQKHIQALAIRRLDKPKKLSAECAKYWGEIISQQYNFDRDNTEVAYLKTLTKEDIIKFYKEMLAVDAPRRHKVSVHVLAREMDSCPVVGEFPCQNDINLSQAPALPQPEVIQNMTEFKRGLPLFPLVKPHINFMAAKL
T3 sequence (P49327 whole entry, the tested form may be a part): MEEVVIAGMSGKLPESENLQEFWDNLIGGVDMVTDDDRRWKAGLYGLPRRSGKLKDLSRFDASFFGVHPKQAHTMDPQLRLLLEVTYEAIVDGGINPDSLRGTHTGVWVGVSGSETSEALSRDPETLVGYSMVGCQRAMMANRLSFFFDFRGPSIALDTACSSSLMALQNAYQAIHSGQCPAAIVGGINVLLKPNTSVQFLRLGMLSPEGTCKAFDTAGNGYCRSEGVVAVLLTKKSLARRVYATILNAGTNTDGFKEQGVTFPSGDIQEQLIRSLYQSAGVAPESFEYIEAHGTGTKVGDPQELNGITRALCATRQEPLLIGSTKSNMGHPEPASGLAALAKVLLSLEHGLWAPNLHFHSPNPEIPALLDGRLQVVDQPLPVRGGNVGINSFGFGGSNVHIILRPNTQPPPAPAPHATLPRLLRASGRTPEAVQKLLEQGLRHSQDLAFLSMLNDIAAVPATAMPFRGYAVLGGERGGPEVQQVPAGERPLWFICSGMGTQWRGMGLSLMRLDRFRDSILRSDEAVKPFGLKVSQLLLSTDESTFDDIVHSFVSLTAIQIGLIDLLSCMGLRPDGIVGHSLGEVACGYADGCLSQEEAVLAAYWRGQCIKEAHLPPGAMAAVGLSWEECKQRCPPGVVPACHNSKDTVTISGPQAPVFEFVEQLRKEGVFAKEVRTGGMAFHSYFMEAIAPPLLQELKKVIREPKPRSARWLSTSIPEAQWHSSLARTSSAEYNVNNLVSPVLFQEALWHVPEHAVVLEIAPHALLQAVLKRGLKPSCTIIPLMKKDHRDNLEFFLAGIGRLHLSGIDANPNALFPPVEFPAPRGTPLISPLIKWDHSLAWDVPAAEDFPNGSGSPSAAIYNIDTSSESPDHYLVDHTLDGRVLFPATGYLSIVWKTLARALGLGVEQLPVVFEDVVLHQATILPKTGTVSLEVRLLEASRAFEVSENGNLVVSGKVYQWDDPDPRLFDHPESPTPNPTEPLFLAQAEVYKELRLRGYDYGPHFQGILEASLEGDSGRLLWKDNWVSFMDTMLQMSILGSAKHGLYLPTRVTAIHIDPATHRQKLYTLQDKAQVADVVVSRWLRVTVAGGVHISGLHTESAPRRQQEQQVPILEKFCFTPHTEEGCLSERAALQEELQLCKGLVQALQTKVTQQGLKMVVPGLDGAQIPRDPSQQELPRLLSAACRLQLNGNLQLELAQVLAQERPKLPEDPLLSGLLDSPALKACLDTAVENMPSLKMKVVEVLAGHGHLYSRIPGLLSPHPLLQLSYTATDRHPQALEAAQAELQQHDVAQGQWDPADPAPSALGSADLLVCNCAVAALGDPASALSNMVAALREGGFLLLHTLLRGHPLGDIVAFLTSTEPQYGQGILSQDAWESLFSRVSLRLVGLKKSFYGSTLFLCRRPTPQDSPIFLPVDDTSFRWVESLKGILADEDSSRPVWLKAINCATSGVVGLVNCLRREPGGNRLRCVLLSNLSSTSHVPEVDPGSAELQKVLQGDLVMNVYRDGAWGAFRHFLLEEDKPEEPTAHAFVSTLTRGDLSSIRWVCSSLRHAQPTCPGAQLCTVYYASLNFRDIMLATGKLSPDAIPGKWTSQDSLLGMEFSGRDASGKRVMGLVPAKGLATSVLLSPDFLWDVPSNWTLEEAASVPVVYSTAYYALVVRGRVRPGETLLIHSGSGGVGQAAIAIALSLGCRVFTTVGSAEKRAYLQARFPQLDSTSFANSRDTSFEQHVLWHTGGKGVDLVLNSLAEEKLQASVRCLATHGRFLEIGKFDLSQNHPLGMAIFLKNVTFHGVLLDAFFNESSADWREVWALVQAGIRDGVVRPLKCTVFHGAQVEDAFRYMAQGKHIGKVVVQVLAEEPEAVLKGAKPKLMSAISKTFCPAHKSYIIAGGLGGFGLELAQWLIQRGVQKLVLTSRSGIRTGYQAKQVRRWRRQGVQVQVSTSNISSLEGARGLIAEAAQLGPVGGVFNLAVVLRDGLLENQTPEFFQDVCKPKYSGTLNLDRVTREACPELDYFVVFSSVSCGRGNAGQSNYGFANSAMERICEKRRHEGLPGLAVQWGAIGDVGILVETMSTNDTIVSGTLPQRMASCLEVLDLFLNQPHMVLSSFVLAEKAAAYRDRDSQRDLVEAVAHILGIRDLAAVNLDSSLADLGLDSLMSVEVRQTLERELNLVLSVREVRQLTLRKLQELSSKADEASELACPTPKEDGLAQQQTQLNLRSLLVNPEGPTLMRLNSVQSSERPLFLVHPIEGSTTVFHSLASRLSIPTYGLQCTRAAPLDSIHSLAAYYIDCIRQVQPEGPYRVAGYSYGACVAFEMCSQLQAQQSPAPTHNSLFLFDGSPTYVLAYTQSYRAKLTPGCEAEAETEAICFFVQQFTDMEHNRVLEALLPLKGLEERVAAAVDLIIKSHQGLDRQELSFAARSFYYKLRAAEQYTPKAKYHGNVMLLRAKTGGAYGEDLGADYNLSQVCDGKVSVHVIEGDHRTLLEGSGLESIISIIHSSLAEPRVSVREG
Sequence of Protein disulfide-isomerase (P07237 whole entry): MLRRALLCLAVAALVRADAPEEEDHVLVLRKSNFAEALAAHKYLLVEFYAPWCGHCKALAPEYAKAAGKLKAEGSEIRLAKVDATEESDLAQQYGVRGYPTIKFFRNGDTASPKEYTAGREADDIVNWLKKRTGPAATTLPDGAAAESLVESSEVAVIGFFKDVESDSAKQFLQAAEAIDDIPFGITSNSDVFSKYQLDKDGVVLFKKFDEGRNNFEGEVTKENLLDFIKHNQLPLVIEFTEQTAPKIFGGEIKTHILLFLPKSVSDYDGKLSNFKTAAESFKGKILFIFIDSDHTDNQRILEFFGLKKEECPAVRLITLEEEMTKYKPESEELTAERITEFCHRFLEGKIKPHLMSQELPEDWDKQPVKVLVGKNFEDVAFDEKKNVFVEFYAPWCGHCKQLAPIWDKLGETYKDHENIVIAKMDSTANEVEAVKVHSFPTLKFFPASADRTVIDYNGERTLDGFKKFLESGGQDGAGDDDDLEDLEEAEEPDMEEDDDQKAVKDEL
Sequence of Beta-galactosidase (Q8VNN2 whole entry): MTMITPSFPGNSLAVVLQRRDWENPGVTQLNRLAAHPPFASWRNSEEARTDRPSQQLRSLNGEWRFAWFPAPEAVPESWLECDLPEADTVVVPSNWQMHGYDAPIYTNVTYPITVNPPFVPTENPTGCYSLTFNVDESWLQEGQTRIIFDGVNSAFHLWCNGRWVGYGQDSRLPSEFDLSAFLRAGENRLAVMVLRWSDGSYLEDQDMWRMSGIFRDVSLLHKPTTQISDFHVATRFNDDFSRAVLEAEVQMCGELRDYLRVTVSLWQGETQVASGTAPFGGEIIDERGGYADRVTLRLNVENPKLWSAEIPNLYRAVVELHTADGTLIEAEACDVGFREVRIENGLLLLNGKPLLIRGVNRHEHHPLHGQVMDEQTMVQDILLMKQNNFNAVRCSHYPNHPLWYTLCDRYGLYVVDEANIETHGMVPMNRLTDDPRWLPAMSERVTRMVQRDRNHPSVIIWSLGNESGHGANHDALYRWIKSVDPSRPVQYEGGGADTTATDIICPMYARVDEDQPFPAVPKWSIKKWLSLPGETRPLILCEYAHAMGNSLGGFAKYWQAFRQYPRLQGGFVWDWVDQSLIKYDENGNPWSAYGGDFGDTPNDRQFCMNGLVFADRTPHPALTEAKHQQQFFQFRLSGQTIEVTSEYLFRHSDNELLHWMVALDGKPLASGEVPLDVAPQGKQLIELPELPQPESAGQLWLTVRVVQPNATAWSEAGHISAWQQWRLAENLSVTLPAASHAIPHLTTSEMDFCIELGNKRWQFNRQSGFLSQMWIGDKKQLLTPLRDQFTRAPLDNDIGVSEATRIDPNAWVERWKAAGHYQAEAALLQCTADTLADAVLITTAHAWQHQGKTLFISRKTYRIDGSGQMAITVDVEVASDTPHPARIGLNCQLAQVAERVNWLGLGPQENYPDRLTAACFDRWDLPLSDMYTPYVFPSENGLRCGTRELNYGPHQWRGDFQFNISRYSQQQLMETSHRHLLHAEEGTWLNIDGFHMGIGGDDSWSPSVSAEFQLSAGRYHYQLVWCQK

With `COC(=O)C1=C(C)N(Cc2ccccc2)C(NCc2cccc(C(F)(F)F)c2)=N[C@H]1c1cccc(F)c1` the EC50 (BJ [1]) was > 133 µM (inconclusive), the EC50 (BJ [2]) was 4.9 µM (active) and the EC50 (HEK293 [3]) was > 54.7 µM (inactive). For the same molecule, the EC50 (BJ [4]) was > 150 µM (inconclusive), the EC50 (Insulin-degrading enzyme [5]) was > 54.7 µM (inactive) and the EC50 [6] was 9.59 µM (inconclusive). The EC50 (Insulin-degrading enzyme [7]) was 9.71 µM (active), the IC50 [8] was 1.85 µM (active) and the EC50 [9] was 11 µM (active). The IC50 [10] was > 20 µM (inactive), the EC50 (BJ [11]) was 5.26 µM (inconclusive) and the EC50 [12] was > 120 µM (not active). For the same molecule, the EC50 [13] was 8.28 µM (active), the AC50 (INS1) was 6.83 µM (active) and the IC50 (HEK293 [14]) was 11.3 µM (inactive).

With `COc1ccc(NC(=O)/C(Cl)=C(/Cl)[S+]([O-])Cc2ccc(Cl)cc2)cn1` (configuration not stated) the AC50 [15] was 1.34 µM (active), the IC50 (Fatty acid synthase [16]) was 2.83 µM (active) and the IC50 [17] was 16.9 µM (active). For the same molecule, the IC50 [18] was 2.35 µM (active), the AC50 [19] was 0.885 µM (active) and the AC50 [20] was 3.48 µM (active). For the same molecule, the IC50 (CHO) was 0.463 µM (active), the IC50 (Beta Lactamase) was 7.83 µM (active) and the CC50 [21] was 100 µM (active). The IC50 (Melanocortin receptor 4) was 9.97 µM (active), the IC50 (Fatty acid synthase [22]) was 5.57 µM (active) and the EC50 (Beta-galactosidase) was > 40 µM (inactive). The EC50 [23] was 0.62 µM (active), the IC50 [24] was > 64.6 µM (inactive) and the IC50 [25] was 41.7 µM (inactive).

With `CCOc1cc(N2CCOCC2)c(OCC)cc1NC(=O)COC(=O)[C@H](Cc1c[nH]c2ccccc12)NC(C)=O` the AC50 [26] was 19.5 µM (active).

For `CCCCn1c(N)c(N(CCC(C)C)C(=O)C2CCCN(C(=O)c3ccc(Cl)cc3)C2)c(=O)[nH]c1=O` (configuration not stated), the EC50 [27] was 21.3 µM (active).
